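Briefly, cells in 96-well plates were exposed to five compound concentrations for 48 h, and endpoints were estimated by linear interpolation. The concentration for full growth arrest is given as TGI.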
Tests used:
Assay in all cases: growth of human tumour cells (NCI), 48 h
[1] = test system: 786-0 renal
[2] = test system: A549 NSCLC
[3] = test system: ACHN renal
[4] = test system: BT-549 breast
[5] = test system: CAKI-1 renal
[6] = test system: COLO 205 colon
[7] = test system: DU-145 prostate
[8] = test system: EKVX NSCLC
[9] = test system: HCC-2998 colon
[10] = test system: HCT-116 colon
[11] = test system: HCT-15 colon
[12] = test system: HL-60(TB) leukemia
[13] = test system: HOP-62 NSCLC
[14] = test system: HOP-92 NSCLC
[15] = test system: HS 578T breast
[16] = test system: HT29 colon
[17] = test system: IGROV1 ovarian
[18] = test system: K-562 leukemia
[19] = test system: KM12 colon
[20] = test system: LOX IMVI melanoma
[21] = test system: M14 melanoma
[22] = test system: MALME-3M melanoma
[23] = test system: MCF7 breast
[24] = test system: MDA-MB-231 breast
[25] = test system: MDA-MB-435
[26] = test system: MDA-N
[27] = test system: MOLT-4 leukemia
[28] = test system: NCI-H226 lung
[29] = test system: NCI-H460 lung
[30] = test system: NCI-H522 lung
[31] = test system: NCI/ADR-RES ovarian
[32] = test system: OVCAR-4 ovarian
[33] = test system: OVCAR-5 ovarian
[34] = test system: OVCAR-8 ovarian
[35] = test system: PC-3 prostate
[36] = test system: RPMI-8226 leukemia
[37] = test system: RXF 393 renal
[38] = test system: SF-268 CNS
[39] = test system: SF-295 CNS
[40] = test system: SF-539 CNS
[41] = test system: SK-MEL-2 melanoma
[42] = test system: SK-MEL-28 melanoma
[43] = test system: SK-MEL-5 melanoma
[44] = test system: SK-OV-3 ovarian
[45] = test system: SN12C renal
[46] = test system: SNB-19 CNS
[47] = test system: SNB-75 CNS
[48] = test system: SR leukemia
[49] = test system: SW-620 colon
[50] = test system: T-47D breast
[51] = test system: TK-10 renal
[52] = test system: U251 CNS
[53] = test system: UACC-257 melanoma
[54] = test system: UACC-62 melanoma
[55] = test system: UO-31 renal
[56] = test system: A498 renal
[57] = test system: CCRF-CEM leukemia
[58] = test system: NCI-H23 lung
[59] = test system: OVCAR-3 ovarian

## N=c1oc2ccc3ccccc3c2cc1-c1nc2ccccc2c(=O)[nH]1
[1]
  TGI: > 100 µM
[2]
  TGI: 73.3 µM
[3]
  TGI: 34 µM
[4]
  TGI: 68.5 µM
[5]
  TGI: > 100 µM
[6]
  TGI: > 100 µM
[7]
  TGI: > 100 µM
[8]
  TGI: > 100 µM
[9]
  TGI: > 100 µM
[10]
  TGI: > 100 µM
[11]
  TGI: > 100 µM
[12]
  TGI: > 100 µM
[13]
  TGI: 45.4 µM
[14]
  TGI: 41.9 µM
[15]
  TGI: 87.6 µM
[16]
  TGI: 39.5 µM
[17]
  TGI: 75.9 µM
[18]
  TGI: > 100 µM
[19]
  TGI: 43 µM
[20]
  TGI: > 100 µM
[21]
  TGI: > 100 µM
[22]
  TGI: > 100 µM
[23]
  TGI: 30 µM
[24]
  TGI: 73.4 µM
[25]
  TGI: > 100 µM
[26]
  TGI: > 100 µM
[27]
  TGI: > 100 µM
[28]
  TGI: > 100 µM
[29]
  TGI: > 100 µM
[30]
  TGI: 28.8 µM
[31]
  TGI: > 100 µM
[32]
  TGI: 67.2 µM
[33]
  TGI: > 100 µM
[34]
  TGI: > 100 µM
[35]
  TGI: > 100 µM
[36]
  TGI: > 100 µM
[37]
  TGI: 56.7 µM
[38]
  TGI: > 100 µM
[39]
  TGI: > 100 µM
[40]
  TGI: > 100 µM
[41]
  TGI: 31.8 µM
[42]
  TGI: > 100 µM
[43]
  TGI: > 100 µM
[44]
  TGI: > 100 µM
[45]
  TGI: > 100 µM
[46]
  TGI: > 100 µM
[47]
  TGI: 19.6 µM
[48]
  TGI: > 100 µM
[49]
  TGI: > 100 µM
[50]
  TGI: > 100 µM
[51]
  TGI: 90.4 µM
[52]
  TGI: > 100 µM
[53]
  TGI: > 100 µM
[54]
  TGI: 44.1 µM
[55]
  TGI: 32.8 µM

## CC(=O)C1=C(C)N(c2ccccc2)C2(O)C3=C(C(=O)c4ccccc4C3=O)C(O)=CC12Cl (configuration not stated)
[1]
  TGI: > 100 µM
[56]
  TGI: 30.5 µM
[2]
  TGI: > 100 µM
[3]
  TGI: 33.2 µM
[4]
  TGI: 30.3 µM
[5]
  TGI: 27.2 µM
[57]
  TGI: 62.5 µM
[6]
  TGI: > 100 µM
[7]
  TGI: > 100 µM
[8]
  TGI: > 100 µM
[9]
  TGI: 25.9 µM
[10]
  TGI: > 100 µM
[11]
  TGI: > 100 µM
[12]
  TGI: 49 µM
[13]
  TGI: 80.1 µM
[14]
  TGI: 30 µM
[15]
  TGI: 15.2 µM
[16]
  TGI: 8.45 µM
[17]
  TGI: 8.25 µM
[18]
  TGI: > 100 µM
[19]
  TGI: 24.6 µM
[20]
  TGI: > 100 µM
[21]
  TGI: > 100 µM
[22]
  TGI: 4.91 µM
[23]
  TGI: 39.9 µM
[24]
  TGI: > 100 µM
[25]
  TGI: 6.28 µM
[26]
  TGI: 6.88 µM
[27]
  TGI: > 100 µM
[28]
  TGI: 55.7 µM
[58]
  TGI: 39.9 µM
[29]
  TGI: > 100 µM
[30]
  TGI: 5.81 µM
[31]
  TGI: > 100 µM
[59]
  TGI: > 100 µM
[32]
  TGI: 14.5 µM
[33]
  TGI: > 100 µM
[34]
  TGI: > 100 µM
[35]
  TGI: 46.5 µM
[36]
  TGI: 4.39 µM
[37]
  TGI: 25.6 µM
[38]
  TGI: 60.6 µM
[39]
  TGI: 40.6 µM
[40]
  TGI: 15.6 µM
[41]
  TGI: 22.2 µM
[42]
  TGI: 23.6 µM
[43]
  TGI: 9.04 µM
[44]
  TGI: > 100 µM
[45]
  TGI: 24 µM
[46]
  TGI: 23.5 µM
[47]
  TGI: 16.2 µM
[48]
  TGI: 12.3 µM
[49]
  TGI: > 100 µM
[50]
  TGI: > 100 µM
[51]
  TGI: 33.1 µM
[52]
  TGI: 50.1 µM
[53]
  TGI: 19.3 µM
[54]
  TGI: 73.9 µM
[55]
  TGI: 26.7 µM

## Nc1nc(N)nc(CCCCc2nc(N)nc(N)n2)n1
[1]
  TGI: > 100 µM
[56]
  TGI: > 100 µM
[2]
  TGI: > 100 µM
[3]
  TGI: > 100 µM
[4]
  TGI: > 100 µM
[5]
  TGI: > 100 µM
[57]
  TGI: > 100 µM
[6]
  TGI: > 100 µM
[7]
  TGI: > 100 µM
[8]
  TGI: > 100 µM
[10]
  TGI: > 100 µM
[11]
  TGI: > 100 µM
[12]
  TGI: > 100 µM
[13]
  TGI: > 100 µM
[14]
  TGI: > 100 µM
[15]
  TGI: > 100 µM
[16]
  TGI: > 100 µM
[17]
  TGI: > 100 µM
[18]
  TGI: > 100 µM
[19]
  TGI: > 100 µM
[20]
  TGI: > 100 µM
[21]
  TGI: > 100 µM
[22]
  TGI: > 100 µM
[23]
  TGI: > 100 µM
[24]
  TGI: > 100 µM
[25]
  TGI: > 100 µM
[26]
  TGI: > 100 µM
[27]
  TGI: > 100 µM
[28]
  TGI: > 100 µM
[58]
  TGI: > 100 µM
[29]
  TGI: > 100 µM
[30]
  TGI: > 100 µM
[31]
  TGI: > 100 µM
[59]
  TGI: > 100 µM
[32]
  TGI: > 100 µM
[33]
  TGI: > 100 µM
[34]
  TGI: > 100 µM
[35]
  TGI: > 100 µM
[36]
  TGI: > 100 µM
[37]
  TGI: > 100 µM
[38]
  TGI: > 100 µM
[39]
  TGI: > 100 µM
[40]
  TGI: > 100 µM
[41]
  TGI: > 100 µM
[42]
  TGI: > 100 µM
[43]
  TGI: > 100 µM
[44]
  TGI: > 100 µM
[45]
  TGI: > 100 µM
[46]
  TGI: > 100 µM
[47]
  TGI: > 100 µM
[48]
  TGI: > 100 µM
[49]
  TGI: > 100 µM
[50]
  TGI: > 100 µM
[51]
  TGI: > 100 µM
[52]
  TGI: > 100 µM
[53]
  TGI: > 100 µM
[54]
  TGI: > 100 µM
[55]
  TGI: > 100 µM

## COc1ccc(-c2cc(-c3ccc(C)cc3)n(C3OC(COC(C)=O)C(OC(C)=O)C(OC(C)=O)C3OC(C)=O)c(=S)c2C#N)cc1 (configuration not stated)
[1]
  TGI: > 100 µM
[2]
  TGI: > 100 µM
[3]
  TGI: > 100 µM
[4]
  TGI: > 100 µM
[5]
  TGI: > 100 µM
[6]
  TGI: > 100 µM
[7]
  TGI: > 100 µM
[8]
  TGI: > 100 µM
[9]
  TGI: > 100 µM
[10]
  TGI: > 100 µM
[11]
  TGI: > 100 µM
[12]
  TGI: > 100 µM
[13]
  TGI: > 100 µM
[14]
  TGI: > 100 µM
[15]
  TGI: > 100 µM
[16]
  TGI: > 100 µM
[17]
  TGI: > 100 µM
[18]
  TGI: > 100 µM
[19]
  TGI: > 100 µM
[20]
  TGI: > 100 µM
[21]
  TGI: > 100 µM
[22]
  TGI: > 100 µM
[23]
  TGI: > 100 µM
[24]
  TGI: > 100 µM
[25]
  TGI: > 100 µM
[26]
  TGI: > 100 µM
[27]
  TGI: > 100 µM
[28]
  TGI: > 100 µM
[58]
  TGI: > 100 µM
[29]
  TGI: > 100 µM
[30]
  TGI: > 100 µM
[31]
  TGI: > 100 µM
[59]
  TGI: > 100 µM
[32]
  TGI: > 100 µM
[33]
  TGI: > 100 µM
[34]
  TGI: > 100 µM
[35]
  TGI: > 100 µM
[36]
  TGI: > 100 µM
[37]
  TGI: > 100 µM
[38]
  TGI: > 100 µM
[39]
  TGI: > 100 µM
[40]
  TGI: > 100 µM
[42]
  TGI: > 100 µM
[43]
  TGI: > 100 µM
[44]
  TGI: > 100 µM
[45]
  TGI: > 100 µM
[46]
  TGI: > 100 µM
[47]
  TGI: 92 µM
[48]
  TGI: > 100 µM
[49]
  TGI: > 100 µM
[50]
  TGI: > 100 µM
[51]
  TGI: > 100 µM
[52]
  TGI: > 100 µM
[54]
  TGI: > 100 µM
[55]
  TGI: > 100 µM

Source: PubChem BioAssay (NCI)
